Results from ChEMBL document CHEMBL2417389, “Synthesis and optimization of novel (3S,5R)-5-(2,2-dimethyl-5-oxo-4-phenylpiperazin-1-yl)piperidine-3-carboxamides as orally active renin inhibitors” (Bioorg Med Chem, 2013).
Positions count from the first letter of the chain named. Calls of active or inactive are those of the source. The calls are words filed in the database; no cut-off is given here.

Legend:
[1] = molecular target: T1, Renin (Macaca fascicularis) (UniProt Q6DLS0); experiment: Ratio of compound IC50 to Aliskiren hemifumarate IC50 for cynomolgus monkey plasma renin
T1 sequence (whole entry): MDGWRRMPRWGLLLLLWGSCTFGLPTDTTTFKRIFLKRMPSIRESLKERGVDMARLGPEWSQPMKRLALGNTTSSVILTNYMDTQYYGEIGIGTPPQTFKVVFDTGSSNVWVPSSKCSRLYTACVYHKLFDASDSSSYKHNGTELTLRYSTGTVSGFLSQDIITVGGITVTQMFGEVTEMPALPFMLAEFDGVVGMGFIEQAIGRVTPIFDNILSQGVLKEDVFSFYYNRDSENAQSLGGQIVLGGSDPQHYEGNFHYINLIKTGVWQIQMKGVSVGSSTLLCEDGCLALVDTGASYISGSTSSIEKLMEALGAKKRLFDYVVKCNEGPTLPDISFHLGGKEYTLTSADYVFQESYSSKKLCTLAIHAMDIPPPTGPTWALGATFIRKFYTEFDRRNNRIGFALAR

[2] = molecular target: T2, Renin (Macaca fascicularis, UniProt Q6DLS0); experiment: Inhibition of cynomolgus monkey plasma renin assessed as angiotensin 1 level after 60 mins by competitive radioimmunoassay
T2 sequence (Q6DLS0 whole entry): T1 sequence (whole entry)

[3] = molecular target: T3, Renin (Homo sapiens, UniProt P00797); experiment: Inhibition of trypsin-activated human recombinant renin using (Arg-Glu(EDANS)-Ile-His-Pro-Phe-His-Leu-Val-Ile-His-Thr-Lys(DABCYL)-Arg) as substrate incubated for 10 mins prior to substrate addition measured after 90 mins by fluorescence assay
T3 sequence (P00797 whole entry): T1 sequence (whole entry) with A68T, L214I, A235S

[4] = AUC (0 to 24 hrs) in cynomolgus monkey at 10 mg/kg, po; type: ADME, organism-based, Macaca fascicularis; parameters: time < 24 hr, dose 10 mg/kg, route oral; conditions: plasma
[5] = molecular target: hERG (KCNH2) (Homo sapiens, UniProt Q12809); experiment: Inhibition of human ERG channel at 30 uM by patch clamp technique
[6] = organism: Cavia porcellus; experiment: Cardiotoxicity in guinea pig assessed as maximum dV/dt in right ventricular papillary muscle at 30 uM by glass microelectrode method relative to baseline; type: toxicity, Muscle tissue
[7] = Volume of distribution at steady state in cynomolgus monkey at 10 mg/kg, po and 1 mg/kg, iv; type: ADME, organism-based, Macaca fascicularis; conditions: in vivo, read-out: Vdss
[8] = Half life in cynomolgus monkey at 10 mg/kg, po and 1 mg/kg, iv; type: ADME, organism-based, Macaca fascicularis; conditions: in vivo
[9] = test system: Rattus norvegicus; experiment: Antihypertensive activity in double transgenic rat assessed as reduction in mean arterial pressure at 30 mg/kg, po measured for 48 hrs post dose; type: functional, organism-based; parameters: dose 30 mg/kg; conditions: Artery
[10] = Plasma protein binding in rat by ultracentrifugation method; type: ADME, cell-free; conditions: read-out: PPB (converted)
[11] = Half life in Sprague-Dawley rat at 30 mg/kg, po and 1 mg/kg, iv; type: ADME, organism-based; conditions: in vivo
[12] = organism: Cavia porcellus; experiment: Cardiotoxicity in guinea pig assessed as action potential duration at 90% repolarization of right ventricular papillary muscle at 30 uM by glass microelectrode method relative to baseline; type: toxicity, Muscle tissue
[13] = Plasma protein binding in human by ultracentrifugation method; type: ADME, cell-free; conditions: read-out: PPB (converted)
[14] = test system: Salmonella typhimurium; experiment: Genotoxicity in Salmonella typhimurium TA98 by Ames assay; type: toxicity, organism-based; conditions: salmonella enterica subsp. enterica serovar typhimurium
[15] = Lipophilicity, log D of the compound at pH 7.4; type: physicochemical; conditions: buffer
[16] = Plasma protein binding in monkey by ultracentrifugation method; type: ADME, cell-free, Macaca mulatta; conditions: rhesus monkey, read-out: PPB (converted)
[17] = test system: Cynomolgus monkey; experiment: Antihypertensive activity in cynomolgus monkey assessed as reduction in mean arterial pressure at 10 mg/kg, po measured for 24 hrs post dose; type: functional, organism-based; parameters: dose 10 mg/kg; conditions: Macaca fascicularis, Artery
[18] = Cmax in Sprague-Dawley rat at 30 mg/kg, po and 1 mg/kg, iv; type: ADME, organism-based; conditions: in vivo
[19] = Clearance in cynomolgus monkey at 10 mg/kg, and 1 mg/kg, iv; type: ADME, organism-based, Macaca fascicularis; conditions: in vivo
[20] = Cmax in cynomolgus monkey at 10 mg/kg, po and 1 mg/kg, iv; type: ADME, organism-based, Macaca fascicularis; conditions: in vivo
[21] = test system: Salmonella typhimurium; experiment: Genotoxicity in Salmonella typhimurium TA100 by Ames assay; type: toxicity, organism-based; conditions: salmonella enterica subsp. enterica serovar typhimurium
[22] = Clearance in Sprague-Dawley rat at 30 mg/kg, po and 1 mg/kg, iv; type: ADME, organism-based; conditions: in vivo
[23] = Volume of distribution at steady state in Sprague-Dawley rat at 30 mg/kg, po and 1 mg/kg, iv; type: ADME, organism-based; conditions: in vivo, read-out: Vdss
[24] = Oral bioavailability in cynomolgus monkey at 10 mg/kg; type: ADME, organism-based, Macaca fascicularis; conditions: in vivo
[25] = test system: Cynomolgus monkey; experiment: Antihypertensive activity in po dosed cynomolgus monkey assessed as reduction in mean arterial pressure administered 3 days post furosemide-challenge measured after 24 hrs; type: functional, organism-based; conditions: Macaca fascicularis; Artery
[26] = molecular target: CYP3A4 (Homo sapiens, UniProt P08684); experiment: Inhibition of CYP3A4 (unknown origin) at 10 uM; type: ADME
[27] = test system: Rattus norvegicus; experiment: Antihypertensive activity in double transgenic rat assessed as reduction in mean arterial pressure at 30 mg/kg, po after 24 hrs; type: functional, organism-based; parameters: dose 30 mg/kg; conditions: Artery
[28] = molecular target: T4, Renin (Homo sapiens) (UniProt P00797); experiment: Ratio of compound IC50 to Aliskiren hemifumarate IC50 for human plasma renin
T4 sequence (whole entry): T1 sequence (whole entry) with A68T, L214I, A235S

[29] = molecular target: CYP2D6 (Homo sapiens, UniProt P10635); experiment: Inhibition of CYP2D6 (unknown origin) at 10 uM; type: ADME
[30] = Metabolic stability in monkey liver microsomes assessed as compound remaining after 30 mins; type: ADME, Macaca mulatta, Microsome; conditions: rhesus monkey, read-out: Stability
[31] = AUC (0 to 24 hrs) in Sprague-Dawley rat at 30 mg/kg, po; type: ADME, organism-based; parameters: time < 24 hr, dose 30 mg/kg, route oral; conditions: plasma
[32] = Oral bioavailability in Sprague-Dawley rat at 30 mg/kg; type: ADME, organism-based; conditions: in vivo
[33] = Metabolic stability in human liver microsomes assessed as compound remaining after 30 mins; type: ADME, Microsome; conditions: read-out: Stability
[34] = molecular target: T3, Renin; experiment: Inhibition of human plasma renin by competitive radioimmunoassay
[35] = Metabolic stability in rat liver microsomes assessed as compound remaining after 30 mins; type: ADME, Microsome; conditions: read-out: Stability

Chain of CYP2D6 (P10635 whole entry): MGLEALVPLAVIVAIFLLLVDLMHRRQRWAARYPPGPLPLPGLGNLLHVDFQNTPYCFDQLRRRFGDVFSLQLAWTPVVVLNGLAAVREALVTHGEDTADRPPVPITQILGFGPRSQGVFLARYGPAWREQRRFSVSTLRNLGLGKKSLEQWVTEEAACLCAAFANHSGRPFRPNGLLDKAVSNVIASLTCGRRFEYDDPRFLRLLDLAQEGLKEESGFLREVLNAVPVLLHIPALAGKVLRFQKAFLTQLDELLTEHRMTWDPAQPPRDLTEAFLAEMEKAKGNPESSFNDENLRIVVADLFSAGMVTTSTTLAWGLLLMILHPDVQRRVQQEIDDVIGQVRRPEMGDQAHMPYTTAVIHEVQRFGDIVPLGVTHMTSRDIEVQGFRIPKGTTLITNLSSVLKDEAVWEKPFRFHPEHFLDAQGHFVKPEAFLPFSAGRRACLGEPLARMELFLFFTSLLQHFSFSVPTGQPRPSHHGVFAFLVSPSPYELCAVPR
Chain of hERG (KCNH2) (Q12809 whole entry): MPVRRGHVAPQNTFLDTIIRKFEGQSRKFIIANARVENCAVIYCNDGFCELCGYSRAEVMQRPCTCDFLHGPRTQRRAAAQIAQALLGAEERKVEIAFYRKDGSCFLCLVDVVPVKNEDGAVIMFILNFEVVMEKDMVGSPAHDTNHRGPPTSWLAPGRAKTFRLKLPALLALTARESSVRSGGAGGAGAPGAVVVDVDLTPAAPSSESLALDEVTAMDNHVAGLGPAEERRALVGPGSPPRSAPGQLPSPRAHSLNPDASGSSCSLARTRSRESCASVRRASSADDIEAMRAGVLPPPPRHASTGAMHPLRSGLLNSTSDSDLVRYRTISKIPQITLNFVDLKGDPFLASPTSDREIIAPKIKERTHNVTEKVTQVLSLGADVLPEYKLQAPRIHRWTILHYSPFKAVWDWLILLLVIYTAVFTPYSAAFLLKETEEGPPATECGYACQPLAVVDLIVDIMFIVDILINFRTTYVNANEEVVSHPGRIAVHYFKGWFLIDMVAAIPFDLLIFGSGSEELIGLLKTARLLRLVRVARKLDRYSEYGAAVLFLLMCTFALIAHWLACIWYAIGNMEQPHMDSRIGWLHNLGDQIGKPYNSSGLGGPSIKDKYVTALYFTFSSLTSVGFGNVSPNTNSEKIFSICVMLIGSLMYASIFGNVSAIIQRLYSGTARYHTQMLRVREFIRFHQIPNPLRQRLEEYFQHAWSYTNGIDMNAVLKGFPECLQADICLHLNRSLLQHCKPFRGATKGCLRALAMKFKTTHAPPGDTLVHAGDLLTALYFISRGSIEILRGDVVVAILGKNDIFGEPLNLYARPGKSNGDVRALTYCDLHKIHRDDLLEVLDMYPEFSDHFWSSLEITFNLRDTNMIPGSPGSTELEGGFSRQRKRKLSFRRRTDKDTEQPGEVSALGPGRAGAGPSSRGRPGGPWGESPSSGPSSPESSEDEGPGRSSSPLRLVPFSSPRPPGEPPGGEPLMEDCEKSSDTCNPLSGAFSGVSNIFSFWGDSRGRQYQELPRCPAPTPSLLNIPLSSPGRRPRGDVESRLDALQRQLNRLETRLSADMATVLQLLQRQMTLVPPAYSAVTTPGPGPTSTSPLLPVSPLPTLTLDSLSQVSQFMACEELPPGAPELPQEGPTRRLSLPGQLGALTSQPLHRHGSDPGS
Chain of CYP3A4 (P08684 whole entry): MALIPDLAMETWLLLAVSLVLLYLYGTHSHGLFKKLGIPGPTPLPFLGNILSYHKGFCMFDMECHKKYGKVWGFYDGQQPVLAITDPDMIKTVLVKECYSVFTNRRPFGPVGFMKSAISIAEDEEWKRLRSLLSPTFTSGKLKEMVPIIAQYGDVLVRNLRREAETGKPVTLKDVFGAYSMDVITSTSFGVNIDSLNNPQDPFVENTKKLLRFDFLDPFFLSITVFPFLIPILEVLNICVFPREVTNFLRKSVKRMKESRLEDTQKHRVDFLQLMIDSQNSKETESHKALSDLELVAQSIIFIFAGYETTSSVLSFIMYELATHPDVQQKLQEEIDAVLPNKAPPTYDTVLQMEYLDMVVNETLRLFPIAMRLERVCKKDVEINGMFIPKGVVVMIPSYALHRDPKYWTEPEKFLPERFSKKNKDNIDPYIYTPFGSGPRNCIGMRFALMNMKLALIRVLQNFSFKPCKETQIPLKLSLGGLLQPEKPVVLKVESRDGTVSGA

## CC(C)C[C@@H](NC(=O)[C@@H]1CNC[C@H](N2CC(=O)N(c3ccccc3Cl)CC2(C)C)C1)c1ccccc1
[1]
  Ratio IC50: 1

## CC[C@@H](NC(=O)[C@@H]1CNC[C@H](N2CC(=O)N(c3ccccc3Cl)CC2(C)C)C1)c1cccc(Cl)c1
[2]
  IC50: 25 nM
[1]
  Ratio IC50: 5
[3]
  IC50: 2.3 nM

## CC(C)CC(CC(C)C)NC(=O)[C@@H]1CNC[C@H](N2CC(=O)N(c3ccccc3Cl)CC2(C)C)C1
[1]
  Ratio IC50: 2.8

## CC[C@@H](NC(=O)[C@@H]1CNC[C@H](N2CC(=O)N(c3ccccc3Cl)CC2(C)C)C1)c1ccc(F)cc1
[2]
  IC50: 19 nM
[1]
  Ratio IC50: 3.7
[3]
  IC50: 2.4 nM

## CC[C@@H](NC(=O)[C@@H]1CNC[C@H](N2CC(=O)N(c3ccccc3Cl)CC2(C)C)C1)c1cccc(F)c1
[2]
  IC50: 14 nM
[1]
  Ratio IC50: 2.8
[3]
  IC50: 1.8 nM

## CC(C)C[C@@H](NC(=O)[C@@H]1CNC[C@H](N2CC(=O)N(c3ccccc3Cl)CC2(C)C)C1)c1cncc(F)c1
[2]
  IC50: 6.9 nM
[1]
  Ratio IC50: 0.8
[3]
  IC50: 1.7 nM

## Cc1ccccc1N1CC(C)(C)N([C@H]2CNC[C@@H](C(=O)N[C@H](CC(C)C)c3ccc(F)cn3)C2)CC1=O.O=C(O)/C=C/C(=O)O
[4]
  AUC(0-t) at 24 h: 3190 ng·h/mL
[5]
  inhibition at 30 µM: 5.2%
[6]
  Activity: -11.6%
[7]
  Vd: 5.4 L/kg
[8]
  half-life: 7.9 h
[9]
  AUC: -581 mmHg.hr
[10]
  fraction unbound: 0.37
[11]
  half-life: 5.4 h
[12]
  Activity: -1%
[13]
  fraction unbound: 0.62
[14]
  Activity: Non-toxic
[15]
  logD: 2
[16]
  fraction unbound: 0.45
[2]
  IC50: 7 nM
[17]
  AUC: -267 mmHg.hr
[18]
  Cmax: 204 ng/mL
[19]
  clearance: 9.5 mL/min/kg
[20]
  Cmax: 604 ng/mL
[21]
  Activity: Non-toxic
[22]
  clearance: 80 mL/min/kg
[23]
  Vd: 11 L/kg
[24]
  bioavailability: 25%
[25]
  Activity: Dose-dependent effect
[26]
  inhibition at 10 µM: 30%
[27]
  Activity: Active
[28]
  Ratio IC50: 1.2
[29]
  inhibition at 10 µM: 1%
[30]
  remaining at 0.5 h: 84%
[1]
  Ratio IC50: 0.9
[31]
  AUC(0-t) at 24 h: 1100 ng·h/mL
[32]
  bioavailability: 20%
[33]
  remaining at 0.5 h: 100%
[34]
  IC50: 3.6 nM
[3]
  IC50: 1.6 nM
[35]
  remaining at 0.5 h: 89%

## CC(C)C[C@@H](NC(=O)[C@@H]1CNC[C@H](N2CC(=O)N(c3ccccc3Cl)CC2(C)C)C1)c1ncco1
[2]
  IC50: 8.3 nM
[1]
  Ratio IC50: 1.4
[3]
  IC50: 1.9 nM

## CC(C)C[C@@H](NC(=O)[C@@H]1CNC[C@H](N2CC(=O)N(c3ccccc3Cl)CC2(C)C)C1)c1ccccn1
[2]
  IC50: 17 nM
[1]
  Ratio IC50: 3.6
[3]
  IC50: 1.4 nM
